No end group written: not given here.
Experiments:
[1] = molecular target: human recombinant PDE5 (Homo sapiens, UniProt O76074); experiment: Inhibitory effect on cGMP-PDE (one-step PDE5 assay); format: biochemical; conditions: 0.15 μM 8-[H^3 ]-cGMP, 2% DMSO, 30 minutes
Experimental: CGMP-PDE activity of compounds of the present invention was measured using a one-step assay adapted from Wells et al., Biochim. Biophys. Acta, 384, 430 (1975). The reaction medium contained 50 mM Tris-HCl, pH 7.5, 5 mM magnesium acetate, […] 51-Nucleotidase, 1 mM EGTA, and 0.15 μM 8-[H^3 ]-cGMP. The enzyme used was a human recombinant PDE5 (ICOS Corp., Bothell, Wash.).
Compounds of the invention were dissolved in DMSO finally present at 2% in the assay.

[2] = system: Rat aortic smooth muscle cells (RSMC); experiment: cGMP level measurements in rat aortic smooth muscle cells stimulated with ANF; format: cell-based; conditions: compound 30 minutes at 37° C., then ANF (100 nM) 10 minutes, dose giving half of the stimulation at saturating concentrations
Experimental: Rat aortic smooth muscle cells (RSMC), prepared according to Chamley et al., Cell Tissue Res., 177, 503-522 (1977), were used between the 10th and 25th passage at confluence in 24-well culture dishes. Culture media was aspirated and replaced with PBS (0.5 ml) containing the compound tested at the appropriate concentration. After 30 minutes at 37° C., particulates guanylate cyclase was stimulated by addition of ANF (100 nM) for 10 minutes. At the end of incubation, the medium was withdrawn, and two extractions were performed by addition of 65% ethanol (0.25 ml). The two ethanolic extracts were pooled and evaporated until dryness, using a Speed-vac system. CGMP was measured after acetylation by scintillation proximity immunoassay (AMERSHAM). The EC50 values are expressed as the dose-giving half of the stimulation at saturating concentrations.

[3] = system: conscious spontaneously hypertensive rats (SHRs); experiment: Hypotensive effect in conscious spontaneously hypertensive rats; format: in vivo, rat; conditions: 5 mg/kg orally in 5% DMF and 95% olive oil, AUC from 0 to 5 hours
Experimental: The hypotensive effects of compounds according to the invention as identified in Table 2 were studied in conscious spontaneously hypertensive rats (SHRs). The compounds were administered orally at a dose of 5 mg/kg in a mixture of 5% DMF and 95% olive oil. Blood pressure was measured from a catheter inserted in the carotid artery and recorded for five hours after administration. The results are expressed as Area Under the Curve (AUC from 0 to 5 hours, mmhg.hour) of the fall in blood pressure over time.

[4] = system: MED; conditions: clinical; oral, sublingual, intraurethral, i.c. or topical; cited from earlier work
[5] = system: PDE6; conditions: cited from earlier work

Compound | EC50 [2] | SHR AUC PO (Area Under the Curve of the fall in blood pressure over time) [3] | also measured
CC(=O)Nc1ccc(/C=C/C(=O)N2CCc3c([nH]c4ccccc34)C2c2ccc3c(c2)OCO3)cc1 (stereo not drawn) [Example 14, (E)-N-[4-[3-Oxo-3-(1-(3,4-methylenedioxyphenyl)-1,3,4,9-tetrahydro-β-carbolin-2-yl)propenyl]phenyl]acetamide] | 0.45 µM | 128 mmHG · h | IC50 [1]: 0.005 µM
Nc1ccc(/C=C/C(=O)N2CCc3c([nH]c4ccccc34)C2c2ccc3c(c2)OCO3)cc1 (stereo not drawn) [Example 25, (E)-1-[1-(3,4-Methylenedioxyphenyl)-1,3,4,9-tetrahydro-β-carbolin-2-yl]-3-(4-aminophenyl)propene-1-one] | 0.3 µM | 72 mmHG · h | IC50 [1]: 0.072 µM
O=C(/C=C/c1ccc([N+](=O)[O-])cc1)N1CCc2c([nH]c3ccccc23)C1c1ccc2c(c1)OCO2 (stereo not drawn) [Example 26, (E)-1-[1-(3,4-Methylenedioxyphenyl)-1,3,4,9-tetrahydro-β-carbolin-2-yl]-3-(4-nitrophenyl)propene-1-one] | – | 102 mmHG · h | –
COC(=O)c1ccc(/C=C/C(=O)N2CCc3c([nH]c4ccccc34)C2c2ccc3c(c2)OCO3)cc1 (stereo not drawn) [Example 28, (E)-4-[3-Oxo-3-[1-(3,4-methylenedioxyphenyl)-1,3,4,9-tetrahydro-β-carbolin-2-yl]-propenyl]benzoic Acid, Methyl Ester] | 0.3 µM | 114 mmHG · h | IC50 [1]: 0.055 µM
O=C(O)c1ccc(/C=C/C(=O)N2CCc3c([nH]c4ccccc34)C2c2ccc3c(c2)OCO3)cc1 (stereo not drawn) [Example 31, (E)-4-[3-Oxo-3-[1-(3,4-methylenedioxyphenyl)-1,3,4,9-tetrahydro-β-carbolin-2-yl]-propenyl]benzoic acid] | 1 µM | 86 mmHG · h | IC50 [1]: 0.004 µM
CC(C)C(=O)Nc1ccc(/C=C/C(=O)N2CCc3c([nH]c4ccccc34)C2c2ccc3c(c2)OCO3)cc1 (stereo not drawn) [Example 55, (E)-N-[4-[3-Oxo-3-(1-(3,4-methylenedioxyphenyl)-1,3,4,9-tetrahydro-β-carbolin-2-yl)propenyl]phenyl]isobutyramide] | 0.4 µM | 97 mmHG · h | IC50 [1]: 0.04 µM
CN(C)CCOc1ccc(/C=C/C(=O)N2CCc3c([nH]c4ccccc34)C2c2ccc3c(c2)OCO3)cc1 (stereo not drawn) [Example 61, (E)-1-[1-(3,4-Methylenedioxyphenyl)-1,3,4,9-tetrahydro-β-carbolin-2-yl]-3-[4-(2-dimethylaminoethoxy)phenyl]propene-1-one] | 1.8 µM | 95 mmHG · h | IC50 [1]: 0.02 µM
O=C(/C=C/c1ccccc1)N1CCc2c([nH]c3ccccc23)C1c1ccc2c(c1)CCO2 (stereo not drawn) [Example 112, (E)-1-[1-(2,3-Dihydrobenzofuran-5-yl)-1,3,4,9-tetrahydro-β-carbolin-2-yl]-3-phenylpropene-1-one] | – | 71 mmHG · h | –
CN(C)CCOc1ccc(/C=C/C(=O)N2CCc3c([nH]c4ccccc34)C2c2ccc3c(c2)CCO3)cc1 (stereo not drawn) [Example 122] | – | 76 mmHG · h | –
CN(C)CCOc1ccc(/C=C/C(=O)N2CCc3c([nH]c4ccccc34)[C@H]2c2ccc3c(c2)CCO3)cc1 [Example 140] | 0.1 µM | 105 mmHG · h | –
O=C(/C=C/c1ccc(OCCN2CCCC2)cc1)N1CCc2c([nH]c3ccccc23)C1c1ccc2c(c1)CCO2 (stereo not drawn) [Example 142] | 1.5 µM | 74 mmHG · h | –
CN1CCC[C@H]1COc1ccc(/C=C/C(=O)N2CCc3c([nH]c4ccccc34)[C@H]2c2ccc3c(c2)CCO3)cc1 [Example 156] | < 1 µM | 57 mmHG · h | –
CCN(CC)CCOc1ccc(/C=C/C(=O)N2CCc3c([nH]c4ccccc34)[C@H]2c2ccc3c(c2)CCO3)cc1 [Example 164] | 1.5 µM | – | –
CC(COc1ccc(/C=C/C(=O)N2CCc3c([nH]c4ccccc34)[C@H]2c2ccc3c(c2)CCO3)cc1)N(C)C (stereo partly drawn) [Example 165] | < 1 µM | – | –
CCN(C)CCOc1ccc(/C=C/C(=O)N2CCc3c([nH]c4ccccc34)[C@H]2c2ccc3c(c2)CCO3)cc1 [Example 175, (E)-(R)-1-[1-(2,3-Dihydrobenzofuran-5-yl)-1,3,4,9-tetrahydro-β-carbolin-2-yl]-3-(4-(2-(ethylmethylamino)ethoxy)phenyl)propene-1-one] | – | 52 mmHG · h | –
CN(C)C[C@@H](O)COc1ccc(/C=C/C(=O)N2CCc3c([nH]c4ccccc34)C2c2ccc3c(c2)CCO3)cc1 (stereo partly drawn) [Example 177, (E)-(R)-1-[1-(2,3-Dihydrobenzofuran-5-yl)-1,3,4,9-tetrahydro-β-carbolin-2-yl]-3-(4-(3-dimethylamino-2-hydroxypropoxy)phenyl)propene-1-one] | < 1 µM | 100 mmHG · h | –
CN(C)CCNc1ccc(/C=C/C(=O)N2CCc3c([nH]c4ccccc34)[C@H]2c2ccc3c(c2)CCO3)cc1 [Example 180] | 3.5 µM | – | –
NCCOc1ccc(/C=C/C(=O)N2CCc3c([nH]c4ccccc34)[C@H]2c2ccc3c(c2)CCO3)cc1 [Example 181, (E)-(R)-1-[1-(2,3-Dihydrobenzofuran-5-yl)-1,3,4,9-tetrahydro-β-carbolin-2-yl]-3-(4-(2-aminoethoxy)phenyl)propene-1-one] | 2 µM | 77 mmHG · h | –
O=C(/C=C/c1ccc(O)cc1)N1CCc2c([nH]c3ccccc23)[C@H]1c1ccc2c(c1)CCO2 [Example 182, (E)-(R)-1-[1-(2,3-Dihydrobenzofuran-5-yl)-1,3,4,9-tetrahydro-β-carbolin-2-yl]-3-(4-hydroxyphenyl)propene-1-one] | < 1 µM | – | –
CN1CCN(c2ccc(/C=C/C(=O)N3CCc4c([nH]c5ccccc45)[C@H]3c3ccc4c(c3)CCO4)cc2)CC1 [Example 183] | 2 µM | – | –
CNCc1ccc(/C=C/C(=O)N2CCc3c([nH]c4ccccc34)[C@H]2c2ccc3c(c2)CCO3)cc1 [Example 184] | 3 µM | – | –
O=C(/C=C/c1ccc(OCCN2CCCCC2)cc1)N1CCc2c([nH]c3ccccc23)[C@H]1c1ccc2c(c1)CCO2 [Example 188, (E)-(R)-1-[1-(2,3-Dihydrobenzofuran-5-yl)-1,3,4,9-tetrahydro-β-carbolin-2-yl]-3-(4-(2-piperidin-1-ylethoxy)phenyl)propene-1-one] | < 1 µM | 86 mmHG · h | –
CNCCOc1ccc(/C=C/C(=O)N2CCc3c([nH]c4ccccc34)[C@H]2c2ccc3c(c2)CCO3)cc1 [Example 191, (E)-(R)-1-[1-(2,3-Dihydrobenzofuran-5-yl)-1,3,4,9-tetrahydro-carbolin-2-yl]-3-[4-(2-methylaminoethoxy)phenyl]propene-1-one] | < 1 µM | 84 mmHG · h | –
CCCCC[C@H](O)/C=C/[C@H]1[C@H](O)CC(=O)[C@@H]1CCCCCCC(=O)O [alprostadil] | – | – | efficacy in MED [4]: not effective in all patients
CN1CCc2cccc3c2[C@H]1Cc1ccc(O)c(O)c1-3 [apomorphine] | – | – | efficacy in MED [4]: neither compound has demonstrated efficacy across a broad range of subjects
Cc1ccc(N(CC2=NCCN2)c2cccc(O)c2)cc1 [phentolamine] | – | – | efficacy in MED [4]: neither compound has demonstrated efficacy across a broad range of subjects
CCCc1nn(C)c2c(=O)[nH]c(-c3cc(S(=O)(=O)N4CCN(C)CC4)ccc3OCC)nc12 [sildenafil] | – | – | selectivity with respect to PDE6 [5]: little selectivity with respect to PDE6; efficacy in MED [4]: has shown efficacy in oral administration clinical trials for MED
vasoactive intestinal polypeptide (VIP): vasoactive intestinal polypeptide (VIP) (HSDAVFTDNYTRLRKQMAVKKYLNSILN; ends and bridges not checked; UniProt P01282 125-152, looked up) | – | – | efficacy in MED [4]: active i.c.
